Laboratory results taken from patent US11192921B2 (priority 2017, dated 2021).
“And” between values parts separate entries of the source, which are not always exact repeats. Equal values may be shown once. Read-outs that look alike come from different tables or passages of the source. Marks after values point to notes of the source that are not given here. No end group written: not given here.

Tests used:
Female Kunming mice [1] = type: in vivo
Kunming mice [2] = type: in vivo
Kunming mice [3] = conditions: mouse, in vivo
male BALB/c mice [4] = assay: cancer-induced pain (CIP) model, thermosensitive test; type: in vivo; conditions: heat radiation stimulation
Protocol: Influence of Analgesic Polypeptides on Neuralgia in a Cancer-Induced Pain (CIP) Model
A number of male BALB/c mice each weighing 25-30 g were used.
Von Fery monofilament; a microsyringe, 5 mg/mL solutions of polypeptides I, II and II I; normal saline.
(§1) BALB/c mice were taken, and the right sciatic nerve was exposed; ascites containing 5×10^4 Meth A sarcoma cells were injected into the proximal nerve near the sciatic nerve trochanter far from the tendon branch of the posterior biceps, the wound was closed, and the same volume of normal saline was injected into the left side by performing a sham operation.
1.3.1 Thermosensitive Test
On the 4th, 7th, 10th and 14th days after inoculation, the latency of foot lifting caused by heat radiation stimulation to animals was observed, and the heat radiation intensity was adjusted to cause the latency of foot lifting of normal mice to be (10±2) s.
All data was expressed as M±SD and subjected to one-way ANOVA.

male BALB/c mice [5] = assay: cancer-induced pain (CIP) model, gross behavior; type: in vivo; conditions: 14th day after inoculation
Protocol: as §1
On the 4th, 7th, 10th and 14th days after inoculation, spontaneous pain and foot drop and the like occurred before the occurrence of thermal sensitivity and mechanical pain sensitivity behaviors, […]

SD rats = assay: pain threshold of trigeminal nerve (trigeminal neuralgia model); type: in vivo; conditions: for highest pain threshold on the operative side / pain threshold on the opposite side: 3 h after injection; for Pain threshold: intraperitoneal
Female Kunming mice [6] = test system: Female Kunming mice
Female Kunming mice [7] = test system: Female Kunming mice; remark: listed apart in the source
Female Kunming mice [8] = test system: Female Kunming mice; remark: listed apart in the source
[9] = 50 μg/kg, injected subcutaneously
[10] = 100 μg/kg, injected subcutaneously

Question: For “GSCSTPPSAVLYC (cysteine pairing not given here) [Polypeptide II]”, which Pain threshold (Female Kunming mice [1]; 0 min) is on record?
Answer: 27.43 ± 0.54^∧ s

Question: And the Pain threshold (Female Kunming mice [1]; mouse, in vivo, ip)?
Answer: 42.54 ± 0.24^∧ s and 22.33 ± 0.36 s and 27.45 ± 0.52 s and 31.34 ± 0.45*^∧ s and 25.43 ± 0.54^∧ s and 26.24 ± 0.42 s

Question: What about the “heat thresholds of mice compared with the normal saline negative control group” value (Female Kunming mice [1]; mouse, in vivo, ip) of the same sequence?
Answer: effectively increase the heat thresholds of mice

Question: And the “increase of the pain threshold compared with the normal saline group and the conotoxin group” value (Female Kunming mice [1]; mouse, in vivo, ip)?
Answer: significantly higher

Question: And the “Pain threshold (tail flick)” value (Kunming mice [2]; 0 min)?
Answer: 2.43 ± 0.21^∧ s

Question: And the “Pain threshold (tail flick)” value (Kunming mice [2]; 15 min)?
Answer: 2.52 ± 0.24 s

Question: What about the “Pain threshold (tail flick)” value (Kunming mice [2]; 30 min) of the same sequence?
Answer: 2.31 ± 0.36 s

Question: And the “Pain threshold (tail flick)” value (Kunming mice [2]; 45 min)?
Answer: 2.45 ± 0.12 s

Question: And the “Pain threshold (tail flick)” value (Kunming mice [2]; 60 min)?
Answer: 2.12 ± 0.41 s

Question: What about the “Pain threshold (tail flick)” value (Kunming mice [2]; 75 min) of the same sequence?
Answer: 2.23 ± 0.14^∧ s

Question: And the “Pain threshold (tail flick)” value (Kunming mice [2]; 90 min)?
Answer: 2.24 ± 0.12 s

Question: What about the “analgesic effects in formalin-induced pain experiments” value (Kunming mice [3]) of the same sequence?
Answer: good analgesic effects

Question: What about the “cumulative foot licking time, Phase I” value (Kunming mice [3]) of the same sequence?
Answer: 48.20 ± 11.31*^

Question: And the “cumulative foot licking time, Phase II” value (Kunming mice [3])?
Answer: 40.53 ± 14.32

Question: What about the “Latency of foot lifting before administration” value (male BALB/c mice [4]; before administration) of the same sequence?
Answer: 10.12 ± 1.64

Question: And the “Latency (D) of foot lifting after administration” value (shortened to “Latency (D) of foot lifting”) (male BALB/c mice [4]; day 4)?
Answer: 9.87 ± 0.78

Question: What about the “Latency (D) of foot lifting” value (male BALB/c mice [4]; day 7) of the same sequence?
Answer: 8.75 ± 0.89

Question: What about the “Latency (D) of foot lifting” value (male BALB/c mice [4]; day 10) of the same sequence?
Answer: 8.31 ± 0.92

Question: And the “Latency (D) of foot lifting” value (male BALB/c mice [4]; day 14)?
Answer: 6.56 ± 0.56

Question: And the “left foot lifting behavior” value (male BALB/c mice [5])?
Answer: obviously observed

Question: And the animal reaction thresholds (SD rats; 50 μg/kg and 100 μg/kg, injected subcutaneously)?
Answer: significantly increased

Question: What about the “time the pain thresholds lasted” value (SD rats; [9]) of the same sequence?
Answer: 1 h

Question: And the “highest pain threshold on the operative side” value (SD rats; [9])?
Answer: 2.3 ± 0.5 g

Question: And the “pain threshold on the opposite side” value (SD rats; [9])?
Answer: 1.2 ± 0.2 g

Question: What about the “time the effect on the operative side lasted” value (SD rats; [10]) of the same sequence?
Answer: about 8 h

Question: And the “highest pain threshold on the operative side” value (SD rats; [10])?
Answer: 7.4 ± 0.9 g

Question: And the “pain threshold on the opposite side” value (SD rats; [10])?
Answer: 3.2 ± 1.3 g

Question: And the pain threshold change (SD rats; 300 μg/kg, subcutaneously)?
Answer: not significantly increased

Question: And the Pain threshold (SD rats; Dose 50 (μg/kg), 0 h)?
Answer: 25.56 ± 0.65 s

Question: What about the Pain threshold (SD rats; Dose 50 (μg/kg), 1 h) of the same sequence?
Answer: 25.23 ± 0.44 s

Question: And the Pain threshold (SD rats; Dose 50 (μg/kg), 2 h)?
Answer: 26.62 ± 0.56 s

Question: And the Pain threshold (SD rats; Dose 50 (μg/kg), 3 h)?
Answer: 26.46 ± 0.62 s

Question: What about the Pain threshold (SD rats; Dose 50 (μg/kg), 4 h) of the same sequence?
Answer: 27.15 ± 0.56 s

Question: What about the Pain threshold (SD rats; Dose 50 (μg/kg), 5 h) of the same sequence?
Answer: 26.62 ± 0.13 s

Question: What about the Pain threshold (SD rats; Dose 100 (μg/kg), 0 h) of the same sequence?
Answer: 25.87 ± 0.23 s

Question: What about the Pain threshold (SD rats; Dose 100 (μg/kg), 1 h) of the same sequence?
Answer: 26.12 ± 0.62 s

Question: What about the Pain threshold (SD rats; Dose 100 (μg/kg), 2 h) of the same sequence?
Answer: 27.16 ± 0.32 s

Question: And the Pain threshold (SD rats; Dose 100 (μg/kg), 3 h)?
Answer: 27.65 ± 0.32 s

Question: And the Pain threshold (SD rats; Dose 100 (μg/kg), 4 h)?
Answer: 26.23 ± 0.62 s

Question: What about the Pain threshold (SD rats; Dose 100 (μg/kg), 5 h) of the same sequence?
Answer: 25.13 ± 0.32 s

Question: And the Pain threshold (SD rats; Dose 300 (μg/kg), 0 h)?
Answer: 26.41 ± 0.66 s

Question: What about the Pain threshold (SD rats; Dose 300 (μg/kg), 1 h) of the same sequence?
Answer: 30.12 ± 0.56 s

Question: And the Pain threshold (SD rats; Dose 300 (μg/kg), 2 h)?
Answer: 30.61 ± 0.62 s

Question: What about the Pain threshold (SD rats; Dose 300 (μg/kg), 3 h) of the same sequence?
Answer: 29.52 ± 0.95 s

Question: What about the Pain threshold (SD rats; Dose 300 (μg/kg), 4 h) of the same sequence?
Answer: 28.62 ± 0.61 s

Question: What about the Pain threshold (SD rats; Dose 300 (μg/kg), 5 h) of the same sequence?
Answer: 27.92 ± 0.61 s

Question: And the “Movement distances of mice in open field tests” value (Female Kunming mice [6]; 1 h)?
Answer: 19.47 ± 1.32^

Question: What about the “Movement distances of mice in the center area in open field tests” value (Female Kunming mice [6]; 1 h) of the same sequence?
Answer: 19.47 ± 1.32^

Question: And the “Movement distances of mice in the peripheral area in open field tests” value (Female Kunming mice [6]; 1 h)?
Answer: 19.47 ± 1.32^

Question: What about the “Number of entrances to the center area in open field tests” value (“Number of entrances to the center area” for short) (Female Kunming mice [6]; 1 h) of the same sequence?
Answer: 19.47 ± 1.32^

Question: And the “Number of entrances to the peripheral area in open field tests” value (Female Kunming mice [6]; 1 h)?
Answer: 19.47 ± 1.32^

Question: And the “Residence time in the center area in open field tests” value (shortened to “Residence time in the center area”) (Female Kunming mice [6]; 1 h)?
Answer: 19.47 ± 1.32^ s

Question: What about the “Residence time in the peripheral area in open field tests” value (shortened to “Residence time in the peripheral area”) (Female Kunming mice [6]; 1 h) of the same sequence?
Answer: 19.47 ± 1.32^ s

Question: What about the “Movement distances of mice in open field tests” value (Female Kunming mice [6]; 24 h) of the same sequence?
Answer: 19.03 ± 2.48 m

Question: What about the “Movement distances of mice in the center area in open field tests” value (Female Kunming mice [6]; 24 h) of the same sequence?
Answer: 19.03 ± 2.48 m

Question: What about the “Movement distances of mice in the peripheral area in open field tests” value (Female Kunming mice [6]; 24 h) of the same sequence?
Answer: 19.03 ± 2.48 m

Question: What about the “Number of entrances to the center area” value (Female Kunming mice [6]; 24 h) of the same sequence?
Answer: 19.03 ± 2.48

Question: And the “Number of entrances to the peripheral area in open field tests” value (Female Kunming mice [6]; 24 h)?
Answer: 19.03 ± 2.48

Question: And the “Residence time in the center area” value (Female Kunming mice [6]; 24 h)?
Answer: 19.03 ± 2.48 s

Question: And the “Residence time in the peripheral area” value (Female Kunming mice [6]; 24 h)?
Answer: 19.03 ± 2.48 s

Question: What about the “Movement distances of mice in open field tests” value (Female Kunming mice [6]; Time 0) of the same sequence?
Answer: 20.98 ± 1.28 m

Question: And the “Movement distances of mice in the center area in open field tests” value (Female Kunming mice [6]; Time 0)?
Answer: 20.98 ±1.28 m

Question: And the “Movement distances of mice in the peripheral area in open field tests” value (Female Kunming mice [6]; Time 0)?
Answer: 20.98 ± 1.28 m

Question: And the “Number of entrances to the center area” value (Female Kunming mice [6]; Time 0)?
Answer: 20.98 ± 1.28

Question: What about the “Number of entrances to the peripheral area in open field tests” value (Female Kunming mice [6]; Time 0) of the same sequence?
Answer: 20.98 ± 1.28

Question: What about the “Residence time in the center area” value (Female Kunming mice [6]; Time 0) of the same sequence?
Answer: 20.98 ± 1.28 s

Question: What about the “Residence time in the peripheral area” value (Female Kunming mice [6]; Time 0) of the same sequence?
Answer: 20.98 ± 1.28 s

Question: What about the “side effects compared with conotoxin (open field)” value (Female Kunming mice [6]; mouse, in vivo, ip) of the same sequence?
Answer: lower side effects

Question: And the “various indexes in open field experiments compared with the normal saline group” value (Female Kunming mice [6]; mouse, in vivo, ip)?
Answer: no significant difference

Question: What about the “Movement duration of mice in forced swimming tests” value (shortened to “Movement duration of mice”) (Female Kunming mice [7]; 1 h) of the same sequence?
Answer: 19.47 ± 1.32^ s

Question: And the “Movement duration of mice” value (Female Kunming mice [7]; 24 h)?
Answer: 19.03 ± 2.48 s

Question: And the “Movement duration of mice” value (Female Kunming mice [7]; Time 0)?
Answer: 20.98 ± 1.28 s

Question: And the “toxic side effects compared with the conotoxin (forced swimming)” value (Female Kunming mice [7]; mouse, in vivo, ip)?
Answer: lower toxic side effects

Question: What about the “Duration of the immobility of mice in tail suspension tests” value (“Duration of the immobility of mice” for short) (Female Kunming mice [8]; 1 h) of the same sequence?
Answer: 19.47 ± 1.32^ s

Question: What about the “Duration of the immobility of mice” value (Female Kunming mice [8]; 24 h) of the same sequence?
Answer: 19.03 ± 2.48 s

Question: What about the “Duration of the immobility of mice” value (Female Kunming mice [8]; Time 0) of the same sequence?
Answer: 20.98 ± 1.28 s

Question: And the “data of tail suspension test compared with the normal saline group” value (Female Kunming mice [8]; mouse, in vivo, ip)?
Answer: no significant difference

Question: What about the “toxic side effects compared with the conotoxin (tail suspension)” value (Female Kunming mice [8]; mouse, in vivo, ip) of the same sequence?
Answer: lower toxic side effects
